Laboratory results published in PubChem BioAssay (NCI).
Several values for one entry are separate records, joined by “and”; a condition that tells them apart may be missing. Identical values can stand only once.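 Cultured in 96-well plates, cells were exposed to test compound for 48 hours across five concentrations. GI50: concentration for 50% inhibition of growth. TGI: total growth inhibition.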

What was measured:
Assay in all cases: growth of human tumour cells (NCI), 48 h
[1] = test system: UACC-62 melanoma
[2] = test system: SK-MEL-5 melanoma
[3] = test system: K-562 leukemia
[4] = test system: MDA-MB-231 breast
[5] = test system: CCRF-CEM leukemia
[6] = test system: KM12 colon
[7] = test system: M14 melanoma
[8] = test system: HOP-92 NSCLC
[9] = test system: SR leukemia
[10] = test system: OVCAR-5 ovarian

Compound | GI50 [1] [µM] | TGI [1] [µM] | GI50 [2] | TGI [2] | GI50 [3] | TGI [3] [µM] | GI50 [4] | TGI [4] [µM] | GI50 [5] | TGI [5] [µM] | GI50 [6] | TGI [6] [µM] | GI50 [7] | TGI [7] [µM] | GI50 [8] [µM] | TGI [8] [µM] | GI50 [9] | TGI [9] [µM] | GI50 [10] | TGI [10] [µM]
CCCCCCCCCCCCNC(=O)[C@H]1CSC(c2ccc(OC)c(F)c2)N1 (stereo partly drawn) | 1.45 | 2.83 | 1.27 µM | 2.57 µM | 0.215 µM | 0.938 | 0.225 µM | 0.55 | 0.225 µM | 0.579 | 0.335 µM | 1.14 | 0.191 µM | 0.374 | 1.69 | 3.24 | 0.324 µM | 1.59 | 1.4 µM | 2.72
CCCCCCCCCCCCCCCCCC1=NC(C)(C)CN1CCO | 1.68 | 3.18 | 2.16 µM | 4.95 µM | 1.53 µM | 3.35 | 1.77 µM | 3.41 | 1.92 µM | 5.05 | 1.78 µM | 3.16 | 1.81 µM | 3.49 | 1.4 | 7.84 | 1.5 µM | 4.02 | 1.78 µM | 3.6
C[C@H](NC(=O)CCC(F)(F)F)C(=O)N[C@@H]1C(=O)N(CCO)c2ncccc2-c2ccccc21 | > 100 | > 100 | > 100 µM | > 100 µM | > 100 µM | > 100 | > 100 µM | > 100 | > 100 µM | > 100 | > 100 µM | > 100 | > 100 µM | > 100 | – | – | > 100 µM | > 100 | > 100 µM | > 100
COc1cc(C(=O)N/N=C/c2cccc([N+](=O)[O-])c2)cc(OC)c1OC | 6.31 | > 100 | 2.76 µM | > 100 µM | 0.872 µM | > 100 | 26.1 µM | > 100 | 4.52 µM | > 100 | 2.41 µM | > 100 | 4.3 µM | 54.3 | – | – | 0.558 µM | > 100 | 39.7 µM | > 100
O=C(CC(C(=O)O)N1CCOCC1)c1ccccc1 (stereo not drawn) | – | 29.5 | – | 43 µM | – | 49.1 | – | 32.4 | – | 15 | – | – | – | 30.8 | – | 38 | – | 35.5 | – | 47.3
C[C@]12CC[C@@H]3c4ccc(O)cc4CC[C@H]3[C@@H]1CC[C@@H]2NS(=O)(=O)c1ccc(-c2ccccc2)cc1 | 4.2 | 20 | 1.71 µM | 3.26 µM | 3.48 µM | > 100 | 4.58 µM | 19.6 | 3.34 µM | > 100 | 3.81 µM | 18.4 | 3.46 µM | 12.9 | 2.09 | 9.68 | 4.1 µM | 66.4 | 4.76 µM | 19.2
CCN(CC)CCOc1ccc(C2=C(c3ccccc3)CCc3cc(OC)ccc32)cc1 | 1.87 | 3.9 | 0.811 µM | 2.29 µM | 2.8 µM | 15.5 | 2.26 µM | 7.44 | 5.59 µM | > 49.3 | 2.46 µM | 6.85 | 1.88 µM | 3.82 | 3.64 | 10.9 | 0.518 µM | – | 2.31 µM | 5.52
CC(C)n1nc(C#Cc2cccc(NC(=O)c3cccc(C(F)(F)F)c3)c2)c2c(N)ncnc21 | 0.19 | 1.24 | 2.55 µM | 30.8 µM | – | > 100 | 0.256 µM | 2.07 | 2.73 µM | > 100 | 3.41 µM | > 100 | 0.309 µM | 2.03 | – | – | 3.67 µM | > 100 | 1.36 µM | 27.7
OCCCCC#Cc1ccccc1C#Cc1cnccn1 | 21.2 | > 100 | 38.2 µM | > 100 µM | 29.5 µM | > 100 | 18 µM | 54.9 | 26.9 µM | > 100 | 36.2 µM | > 100 | – | – | 19.5 | 88.4 | 28.1 µM | > 100 | 47.7 µM | > 100
COc1cc(OC)c(/C=C/S(=O)(=O)Cc2ccc(OC)c(NCC(=O)O)c2)c(OC)c1 | – | > 100 | 0.113 µM and 0.0684 µM | 1.29 µM and 1.01 µM | 0.0767 µM and 0.049 µM | > 100 | 0.192 µM and 0.196 µM | > 2.68 | 0.159 µM and 0.291 µM | > 100 | 0.103 µM and 0.0499 µM | > 10 | 0.0965 µM and 0.0467 µM | > 10 | – | – | 0.181 µM and 0.206 µM | > 100 | 0.347 µM and 0.47 µM | > 100
COc1cc(C(=O)/C=C/c2c(C(F)(F)F)nc3sccn23)cc(OC)c1OC | 1.52 | 2.95 | 1.59 µM | 2.96 µM | 1.74 µM | 6.27 | 2.92 µM | 9.84 | 1.24 µM | 8.34 | 1.47 µM | 2.97 | – | – | 7 | 22.4 | 0.54 µM | 3.61 | – | –
O=c1c2cc(F)ccc2sc2c(NCCCN3CCCC3)nc3ccccc3c12 | 1.87 | 3.77 | 1.69 µM | 3.07 µM | 2.06 µM | 4.86 | 1.55 µM | 3.2 | 2.02 µM | 4.51 | – | – | 1.86 µM | 3.47 | 1.13 | 3.85 | 2.75 µM | 6.51 | 1.85 µM | 3.74
CC(=O)N[C@@H]1CCC[C@H](C(=O)Nc2cc(-c3cnn4c3CC(C)(C)C4)c(Cl)cn2)C1 | < 0.01 | 0.0549 | < 0.01 µM | < 0.0406 µM | 0.0212 µM | > 100 | < 0.0133 µM | > 100 | < 0.01 µM | 0.315 | < 0.01 µM | 12.2 | – | – | < 0.01 | 0.0389 | < 0.01 µM | 1.21 | < 0.01 µM | > 100
